Laboratory results as given in ChEMBL document CHEMBL1201862, “PubChem BioAssay data set” (2004).
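Grown in 96-well plates, cells were treated for 48 hours with each compound at five concentrations. Insufficient inhibition: endpoint recorded as highest concentration tested. GI50 = concentration required for 50% inhibition of growth.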 Active and inactive are the calls of the source. No stated cut-off is given here; in the data, active = GI50 up to about 1.1 µM and inactive = higher.

Assays:
Experiment in all cases: NCI tumour cell line growth inhibition, 48 h
HCT-15 = test system: HCT-15
HT-29 = test system: HT-29
UACC-62 = test system: UACC-62
Malme-3M = test system: Malme-3M
DU-145 = test system: DU-145
NCI-H23 = test system: NCI-H23
RPMI-8226 = test system: RPMI-8226
HCT-116 = test system: HCT-116
U-251 = test system: U-251
SK-MEL-2 = test system: SK-MEL-2
IGROV-1 = test system: IGROV-1
SN12C = test system: SN12C
CAKI-1 = test system: CAKI-1
LOX IMVI = test system: LOX IMVI
HOP-62 = test system: HOP-62
MOLT-4 = test system: MOLT-4
COLO 205 = test system: COLO 205
NCI-H226 = test system: NCI-H226
TK-10 = test system: TK-10

Row | SMILES | GI50 (HCT-15) [µM] | GI50 (HT-29) | GI50 (UACC-62) | GI50 (Malme-3M) | GI50 (DU-145) | GI50 (NCI-H23) | GI50 (RPMI-8226) | GI50 (HCT-116) | GI50 (U-251) | GI50 (SK-MEL-2) | GI50 (IGROV-1) | GI50 (SN12C) | GI50 (CAKI-1) | GI50 (LOX IMVI) | GI50 (HOP-62) | GI50 (MOLT-4) | GI50 (COLO 205) | GI50 (NCI-H226) | GI50 (TK-10)
1 | C#Cc1cc(-c2nc3ccccc3s2)ccc1N | 17.5 | 18 µM (inactive) | 17.5 µM (inactive) | 24.4 µM (inactive) | 16.7 µM (inactive) | 16.5 µM (inactive) | 25.4 µM (inactive) | 16.6 µM (inactive) | 20.6 µM (inactive) | 16.7 µM (inactive) | 0.615 µM (active) | 22 µM (inactive) | 20.5 µM (inactive) | 13.7 µM (inactive) | 37.3 µM (inactive) | 22.6 µM (inactive) | 17.5 µM (inactive) | 12.4 µM (inactive) | 15.1 µM (inactive)
2 | CCCCCCCCCCCCCCCCCCNc1ccn(C2OC(COP(=O)(O)OCC(COP(=O)(O)OCC3OC(n4cc(C)c(=O)[nH]c4=O)CC3N=[N+]=[N-])OCCCCCCCCCCCCCCCCCC)C(O)C2O)c(=O)n1 (stereo not given) | 34 | 28.5 µM (inactive) | 49.5 µM (inactive) | 27 µM (inactive) | > 100 µM (inactive) | 77.4 µM (inactive) | 7.46 µM (inactive) | 56.8 µM (inactive) | 12.8 µM (inactive) | > 100 µM (inactive) | 52.2 µM (inactive) | > 100 µM (inactive) | > 100 µM (inactive) | 21.2 µM (inactive) | > 100 µM (inactive) | 41.5 µM (inactive) | 54.5 µM (inactive) | > 100 µM (inactive) | > 100 µM (inactive)
3 | COc1cccc2c1OC1c3ccccc3OCC1(O)C2 (stereo not given) | > 100 | > 100 µM (inactive) | > 100 µM (inactive) | > 100 µM (inactive) | > 100 µM (inactive) | > 100 µM (inactive) | > 100 µM (inactive) | > 100 µM (inactive) | > 100 µM (inactive) | > 100 µM (inactive) | > 100 µM (inactive) | > 100 µM (inactive) | > 100 µM (inactive) | > 100 µM (inactive) | > 100 µM (inactive) | > 100 µM (inactive) | > 100 µM (inactive) | > 100 µM (inactive) | > 100 µM (inactive)
4 | CC(=O)OC1CCC2(C)C(=CCC3C4CCC5(OC6CC(C)CN(C(C)=O)C6C5C)C(C)=C4C(=O)C32)C1 (stereo not given) | 15.7 | 19.9 µM (inactive) | 5.35 µM (inactive) | 15.2 µM (inactive) | 30.8 µM (inactive) | 15 µM (inactive) | 14.6 µM (inactive) | 18.9 µM (inactive) | 16.2 µM (inactive) | 17.8 µM (inactive) | 14.4 µM (inactive) | 21.6 µM (inactive) | 19.6 µM (inactive) | 12 µM (inactive) | 20.4 µM (inactive) | 5.53 µM (inactive) | 14 µM (inactive) | 22.2 µM (inactive) | 24.3 µM (inactive)
5 | O=C1N[C@H]2C(=O)c3c(Br)sc(Br)c3[C@H]2O1 | 1.95 | 2.47 µM (inactive) | 13.6 µM (inactive) | 4.75 µM (inactive) | 13.2 µM (inactive) | 6.44 µM (inactive) | 4.44 µM (inactive) | 2.77 µM (inactive) | 3.48 µM (inactive) | 14.7 µM (inactive) | 11.4 µM (inactive) | 4.76 µM (inactive) | 4.53 µM (inactive) | 3.08 µM (inactive) | 16.2 µM (inactive) | 2.25 µM (inactive) | 3.52 µM (inactive) | 18.1 µM (inactive) | 22 µM (inactive)
6 | O=C(O)C1CC=CCC1C(=O)Nc1cccc(O)c1 (stereo not given) | > 100 | > 100 µM (inactive) | > 100 µM (inactive) | > 100 µM (inactive) | > 100 µM (inactive) | > 100 µM (inactive) | > 100 µM (inactive) | > 100 µM (inactive) | > 100 µM (inactive) | > 100 µM (inactive) | > 100 µM (inactive) | > 100 µM (inactive) | > 100 µM (inactive) | > 100 µM (inactive) | > 100 µM (inactive) | > 100 µM (inactive) | > 100 µM (inactive) | > 100 µM (inactive) | > 100 µM (inactive)
7 | CCOC(=O)C(Cc1ccc(OC(=O)c2ccc(OC)cc2OC)cc1)NC(=O)C(F)(F)F (stereo not given) | 21.1 | 20.7 µM (inactive) | 16.1 µM (inactive) | 21.3 µM (inactive) | 19.8 µM (inactive) | 22.1 µM (inactive) | 20.3 µM (inactive) | 34.1 µM (inactive) | 32.1 µM (inactive) | 24.6 µM (inactive) | 19.2 µM (inactive) | 40.1 µM (inactive) | 29 µM (inactive) | 18.6 µM (inactive) | 21.3 µM (inactive) | 16.8 µM (inactive) | 18.7 µM (inactive) | 65.2 µM (inactive) | 22.2 µM (inactive)
8 | CO/N=C(/C(=O)OC)c1ccccc1COc1cccc(C(F)(F)F)c1 | 29.2 | 46.9 µM (inactive) | 18.2 µM (inactive) | 2.3 µM (inactive) | 26.5 µM (inactive) | 27.9 µM (inactive) | 6.18 µM (inactive) | 10.8 µM (inactive) | 36.4 µM (inactive) | 36.1 µM (inactive) | 30.2 µM (inactive) | 43.9 µM (inactive) | 12.1 µM (inactive) | 22.9 µM (inactive) | 21.2 µM (inactive) | 10.6 µM (inactive) | 41.8 µM (inactive) | 29.4 µM (inactive) | 11.4 µM (inactive)
9 | CC1Cc2c(cc(N)nc2Br)NC1=O (stereo not given) | > 100 | > 100 µM (inactive) | > 100 µM (inactive) | > 100 µM (inactive) | > 100 µM (inactive) | > 100 µM (inactive) | > 100 µM (inactive) | 64.6 µM (inactive) | > 100 µM (inactive) | > 100 µM (inactive) | > 100 µM (inactive) | > 100 µM (inactive) | > 100 µM (inactive) | > 100 µM (inactive) | > 100 µM (inactive) | 43.1 µM (inactive) | > 100 µM (inactive) | > 100 µM (inactive) | > 100 µM (inactive)
10 | COCn1c(C)c(C)c2c(=O)oc(N(C)C)nc21 | > 100 | > 100 µM (inactive) | > 100 µM (inactive) | > 100 µM (inactive) | > 100 µM (inactive) | > 100 µM (inactive) | > 100 µM (inactive) | > 100 µM (inactive) | > 100 µM (inactive) | > 100 µM (inactive) | > 100 µM (inactive) | > 100 µM (inactive) | 13.6 µM (inactive) | > 100 µM (inactive) | > 100 µM (inactive) | > 100 µM (inactive) | > 100 µM (inactive) | > 100 µM (inactive) | > 100 µM (inactive)
11 | O=C1Nc2ccc(S(=O)(=O)O)cc2/C1=C1/Nc2ccc(Br)cc2C1=O | > 100 | > 100 µM (inactive) | > 100 µM (inactive) | > 100 µM (inactive) | > 100 µM (inactive) | > 100 µM (inactive) | > 100 µM (inactive) | > 100 µM (inactive) | > 100 µM (inactive) | > 100 µM (inactive) | 19.1 µM (inactive) | > 100 µM (inactive) | > 100 µM (inactive) | > 100 µM (inactive) | > 100 µM (inactive) | > 100 µM (inactive) | > 100 µM (inactive) | > 100 µM (inactive) | > 100 µM (inactive)
12 | COCn1c(=O)n(C)c(=O)c2c1nc1c(c(=O)n(C)c(=O)n1COC)[n+]2[O-] | 4.22 | 18.8 µM (inactive) | 7.01 µM (inactive) | 5.47 µM (inactive) | 17.1 µM (inactive) | 3.29 µM (inactive) | 9.1 µM (inactive) | 10.6 µM (inactive) | 5.85 µM (inactive) | 12.6 µM (inactive) | 7.36 µM (inactive) | 7.08 µM (inactive) | 20.3 µM (inactive) | 6.68 µM (inactive) | 9.23 µM (inactive) | 4.19 µM (inactive) | 12.5 µM (inactive) | 10.1 µM (inactive) | 8.69 µM (inactive)
13 | COC(=O)CCCc1c(-c2[nH]c3ccccc3c2CCCC(=O)OC)[nH]c2ccccc12 | > 100 | > 100 µM (inactive) | > 100 µM (inactive) | 39.3 µM (inactive) | > 100 µM (inactive) | > 100 µM (inactive) | > 100 µM (inactive) | > 100 µM (inactive) | > 100 µM (inactive) | > 100 µM (inactive) | > 100 µM (inactive) | > 100 µM (inactive) | > 100 µM (inactive) | > 100 µM (inactive) | > 100 µM (inactive) | > 100 µM (inactive) | > 100 µM (inactive) | > 100 µM (inactive) | > 100 µM (inactive)
14 | Cc1ccc(O)c(-c2cc(-c3cccc(Br)c3)c(C#N)c(N)n2)c1 | 12.9 | 23.9 µM (inactive) | 16.4 µM (inactive) | 23.5 µM (inactive) | 29.6 µM (inactive) | 33.7 µM (inactive) | 11.5 µM (inactive) | 20 µM (inactive) | 17.3 µM (inactive) | 20.7 µM (inactive) | 11.7 µM (inactive) | 21.5 µM (inactive) | 21.8 µM (inactive) | 16.3 µM (inactive) | 34.6 µM (inactive) | 20.1 µM (inactive) | 18.5 µM (inactive) | 17.5 µM (inactive) | 18.2 µM (inactive)
15 | COc1ccc2nc3cc(Cl)ccc3c(Nc3ccccc3-c3ccccc3Nc3c4ccc(Cl)cc4nc4ccc(OC)cc34)c2c1 | 14.3 | 10.5 µM (inactive) | 27.5 µM (inactive) | 35.2 µM (inactive) | 69.3 µM (inactive) | 21.7 µM (inactive) | 8.17 µM (inactive) | 11.7 µM (inactive) | 37.3 µM (inactive) | 34.2 µM (inactive) | 45.7 µM (inactive) | 32.2 µM (inactive) | 21.3 µM (inactive) | 18.2 µM (inactive) | 55.7 µM (inactive) | 3.13 µM (inactive) | 32.6 µM (inactive) | > 41.1 µM (inactive) | 64.1 µM (inactive)
